Measured values published in US12599591B2, “Vemurafenib and salts thereof for use in the treatment of enteroviral infections” (Jyväskylän yliopisto, priority 2018, dated 2026).

How the values were obtained:
Echovirus 1 (EV1) = type: cell-based, Farouk strain
[1] = system: Coxsackie virus A9 (CVA9); assay: CVA9 infection of A549 cells, cell viability (CTG assay / crystal violet); type: cell-based, Griggs strain; settings: 18 h post infection
Protocol: (§1) FIG. 1. […] A549 cells were treated for 1 h with different concentrations of vemurafenib before Echovirus 1 (EV1), Coxsackie virus B3 (CVB3) or Coxsackie virus A9 (CVA9) infection, and vemurafenib was present after addition of viruses. Further, non-infected control cells were included. After 18 h post infection, the cell viability was determined by cell viability Glo-titer assay according to the instructions by the manufacturer (CTG assay, which measures cellular ATP levels, Promega; left figure) or crystal violet staining as described before (right figure; Martikainen et al., 2015). Values are means±SD.
(§2) Adenocarcinoma human alveolar basal epithelial (A549, ATCC) cells were cultured in Dulbecco's modified eagle medium (DMEM; Gibco) supplemented with 10% fetal bovine serum (FBS; Gibco), 1% Glutamax (Gibco) and 1% penicillin and streptomycin antibiotics (Gibco) for 24 h. […] In addition, non-infected control cells were included. After 18 h post infection (p.i.), the cell viability was determined by cell titer-Glo assay according to the instructions by the manufacturer (CTG assay, which measures cellular ATP levels, Promega; left figure) or crystal violet staining as described before (right figure; Martikainen et al. 2015). Values are means±SD.

[2] = system: Coxsackie virus B3 (CVB3); assay: CVB3 infection of A549 cells, cell viability (CTG assay / crystal violet); type: cell-based, Nancy strain; settings: 18 h post infection
Protocol: as §1, §2

[3] = system: Coxsackie virus B (CVB) serotypes (1-6); assay: CVB serotypes 1-6 infection of A549 cells, crystal violet viability; type: cell-based; settings: 18 h of infection, dose dependent
Protocol: FIG. 2. […] Different concentrations of vemurafenib were tested against different Coxsackie virus B (CVB) serotypes (1-6) by treating A549 cells with the drug for 1 h and then infecting the cells with the viruses. Cell viability was determined after 18 h of infection using crystal violet staining. The results were normalized to control sample with no virus infection and 0 μM concentration of vemurafenib (CTRL). The values are means±SD.
Finally, the cell viability was determined using crystal violet staining. The results were normalized to control sample with no virus infection and 0 μM concentration of vemurafenib (CTRL). The values are means±SD.

[4] = system: CVB4 E2 diabetogenic strain; assay: CVB4 infection of Min-6 pancreatic beta cells, crystal violet viability; type: cell-based; settings: mouse pancreatic beta cell line Min-6, 0.25-7.5 μM, MOI of 1, crystal violet
Poliovirus 3 = type: cell-based, polio-3 (vaccine strain); settings: A549 cells, 2 days of infection, Cell Titer Glo
CV-B4 E2 = assay: CVB4 infection in mice, infectious viral titer in heart and pancreas; type: in vivo, Hsd:ICR(CD-1) female mice; settings: 10 mg/kg intraperitoneally once a day for 5 days, sacrificed on day 6
EV1-infected A549 cells = type: cell-based, human
CVB4 = assay: Persistent CVB4 infection of Panc-1 cells, viral titers and viral RNA; type: cell-based; settings: 7.5 μM each 2 to 3 days
[5] = system: human parechovirus 1 (HPEV1); type: cell-based; settings: A549 cells, 5 μM, 6 h
[6] = system: semliki forest virus (SFV); type: cell-based; settings: Hela cells, 5 or 10 μM, 6 h
[7] = system: vesicular stomatitis virus (VSV); type: cell-based
[8] = system: respiratory syncytial virus (RSV); type: cell-based; settings: Hela cells, 5 or 10 μM, 20 h
EV1 [9] = assay: Time of addition assay, EV1 infection of A549 cells, VP1 labeling; type: cell-based; settings: EV1, 5 μM, infection followed until 6 h p.i.
EV1 [10] = assay: EV1 replication in A549 cells by dsRNA (J2) labeling; type: cell-based; settings: 5 μM, 3, 4 or 6 h p.i.
EV1 IRES = type: cell-based, EV1 Farouk strain; settings: Hela cells, 5 μM, 24 h
HPEV1 IRES = type: cell-based, HPEV1 strain 22 Harris; settings: Hela cells, 5 μM, 24 h
viral protease 2A = viral protease 2A (Coxsackievirus B3, UniProt P03313); assay: Viral protease 2A action on PABP in Hela cell homogenate, western blotting; type: biochemical; settings: 5, 10 or 20 μM, RT for 18 h
Protocol: (§3) FIG. 18. […] The results were detected by western blotting and known cellular targets for 2A and 3C, poly A binding protein (PABP) and stress granule assembly factor 1 (G3BP1) respectively, were immunolabeled. The results are representative of two separate experiments.
(§4) The reaction was carried out in buffer containing 20 mM HEPES (pH 7.4), 0.12 M KCH3COO, 4 mM Mg(CH3COO)2 and 5 mM DTT with or without vemurafenib (5, 10 or 20 μM) being present. The reactions were carried out at RT for 18 h, after which they were terminated by adding Laemmli sample buffer and heating at 100° C. for 9 min. The samples were run in 4-20% Miniprotean TGX stain free gel (Biorad). The gel was UV-activated for 5 min with Chemidoc MP (Biorad) to reveal the total protein amount, after which the proteins were transferred to PVDF membrane (Immobilon-P, Merck Millipore). Next, the blot was blocked o/n with 5% BSA in 0.05% tween in TBS. Poly A binding protein (PABP) was detected using 1:100 dilution of mouse anti-PABP (Santa Cruz). Stress granule assembly factor 1 G3BP1 was detected using 1:1000 dilution of mouse anti-G3BP1 (Santa Cruz).

viral protease 3C = viral protease 3C (Coxsackievirus B3, UniProt P03313); assay: Viral protease 3C action on G3BP1 in Hela cell homogenate, western blotting; type: biochemical; settings: 5, 10 or 20 μM, RT for 18 h
Protocol: as §3, §4

3D polymerase of CVB3 = 3D polymerase of CVB3 (Coxsackievirus B3, UniProt P03313); assay: RNA elongation assay with viral 3D polymerase; type: biochemical; settings: various inhibitor concentrations, RT
Protocol: FIG. 19. […] An RNA elongation assay was used to study the effect of vemurafenib on viral 3D polymerase. […] At 15 min, GTP and ATP were added along with RNA2 (SEQ ID NO:2) allowing 3D+RNA1 complexes to incorporate ATP and GTP (forming +2 product) as well as initiate and incorporate GTP and RNA2 (forming +1 product). After 10 min, each reaction was “chased” to fully elongated product by adding the remaining NTPs.
An RNA elongation assay was used to study the effect of vemurafenib on viral 3D polymerase. […] At 15 min, GTP and ATP were added along with RNA2 (SEQ ID NO: 2) allowing 3D+RNA1 complexes to incorporate ATP and GTP (forming +2 product) as well as initiate and incorporate GTP and RNA2 (forming +1 product). After 10 min, each reaction was “chased” to fully elongated product by adding the remaining NTPs.

influenza A(H1N1)pdm09 = settings: reported by McKimm-Breschkin et al.; cited from earlier work
adenovirus 5 = assay: Adenovirus 5 GFP transduction of A549 cells; settings: 5 μM, 17 h
[11] = system: human rhinovirus B14 (HRVB14); assay: HRVB14 replication in Hela cells by dsRNA (J2) labeling; settings: 5 μM, 6 h at +34° C.
EV1 RNA = assay: Transfection of EV1 genomic RNA into A549 cells, VP1 labeling; settings: 5 μM, 6 h
EV1 particle = assay: Real-time spectroscopic assay of EV1 particle opening (Sybr green II); settings: 5 μM, 3 h at +37° C.
EV1 [12] = assay: Uncoating of radioactively labeled EV1 in endosomes of A549 cells, sucrose gradients; settings: 5 μM, 4 h p.i.
[13] = 1 h pre-treatment, dose dependent

viral protease 2A, sequence (P03313 852-1001): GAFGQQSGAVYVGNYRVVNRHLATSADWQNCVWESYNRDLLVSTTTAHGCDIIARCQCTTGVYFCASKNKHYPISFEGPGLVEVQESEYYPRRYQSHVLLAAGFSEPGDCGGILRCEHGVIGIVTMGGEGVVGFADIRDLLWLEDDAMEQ
viral protease 3C, sequence (P03313 1541-1723): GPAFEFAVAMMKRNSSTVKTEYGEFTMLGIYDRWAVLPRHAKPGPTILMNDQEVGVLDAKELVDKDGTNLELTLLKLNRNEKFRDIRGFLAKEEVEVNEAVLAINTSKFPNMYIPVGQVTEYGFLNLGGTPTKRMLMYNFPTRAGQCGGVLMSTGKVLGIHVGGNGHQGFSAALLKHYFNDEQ
3D polymerase of CVB3, sequence (P03313 1724-2185): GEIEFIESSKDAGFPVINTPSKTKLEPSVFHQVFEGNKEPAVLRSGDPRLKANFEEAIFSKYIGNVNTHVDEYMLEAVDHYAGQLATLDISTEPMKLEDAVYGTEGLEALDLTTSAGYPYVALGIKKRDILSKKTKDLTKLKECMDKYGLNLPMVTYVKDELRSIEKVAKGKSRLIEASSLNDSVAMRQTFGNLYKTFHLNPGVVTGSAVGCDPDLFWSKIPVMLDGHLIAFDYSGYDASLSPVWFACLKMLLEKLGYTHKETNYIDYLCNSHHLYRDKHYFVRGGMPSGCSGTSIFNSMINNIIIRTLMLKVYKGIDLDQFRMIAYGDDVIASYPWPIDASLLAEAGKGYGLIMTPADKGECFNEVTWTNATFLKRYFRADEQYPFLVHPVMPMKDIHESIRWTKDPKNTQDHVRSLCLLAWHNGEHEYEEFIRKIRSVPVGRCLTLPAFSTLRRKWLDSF

## CCCS(=O)(=O)Nc1ccc(F)c(C(=O)c2c[nH]c3ncc(-c4ccc(Cl)cc4)cc23)c1F [vemurafenib, N-(3-(5-(4-chlorophenyl)-1H-pyrrolo[2,3-b]pyridine-3-carbonyl)-2,4-difluorophenyl)propane-1-sulfonamide]
Echovirus 1 (EV1)
  effect on EV1 infection (cell viability): prevents the infection
[1]; [13]
  effect on CVA9 infection (cell viability): rescued the cells
[1]
  concentration of maximal inhibition of CVA9 infection: 5 µM
[2]; [13]
  effect on CVB3 infection (cell viability): rescued the cells
[2]
  concentration of maximal inhibition of CVB3 infection: 5 µM
[3]
  effect on infection by CVB serotypes 1 to 6 (cell viability): inhibited
[4]
  effect on CVB4 infection of Min-6 cells (cell viability): efficiently rescued
Poliovirus 3
  effect on polio-3 infection (cell viability): efficiently rescued
CV-B4 E2
  levels of infectious CVB4 in heart tissue: significantly decreased
  levels of infectious CVB4 in pancreas tissue: significantly decreased
EV1-infected A549 cells
  effects on BRAF in the transcriptomics study: no effects
EV1-infected A549 cells; A549 cells, 6 h pi, Illumina Human HT-12 v4
  effect on EV1-induced up- or downregulation of mRNAs: attenuated almost all the effects of the virus
CVB4; qPCR at day 7, 9, 14 and 21
  presence of viral RNA in persistently infected Panc-1 cells: totally eradicated
CVB4; supernatant titers on HEp-2 cells
  level of infectious viral particles (capsid) in persistently infected Panc-1 cells: totally eradicated
[5]
  effect on HPEV1 infection (VP1 positive cells): not effective
[6]
  effect on SFV infection (GFP infection percentage): not effective
[7]
  effect on VSV infection (GFP infection percentage): not effective
[8]
  effect on RSV infection (GFP infection percentage): not effective
EV1 [9]
  time of administration at which efficacy is lost: ≥ 3 h p.i.
EV1 [10]
  effect on EV1 replication (replication intermediate, dsRNA): prevented
EV1 IRES
  effect on EV1 IRES-based translation (mCherry fluorescence): does not have direct effects
HPEV1 IRES
  effect on HPEV1 IRES-based translation (mCherry fluorescence): does not have direct effects
Viral protease 2A
  effect on viral protease 2A action (PABP): does not have direct effects
Viral protease 3C
  effect on viral protease 3C action (G3BP1): does not have direct effects
3D polymerase of CVB3
  effect on CVB3 3D polymerase action: does not prevent its action, nor binding or elongation of the nascent RNA chain
Influenza A(H1N1)pdm09
  efficacy against influenza A(H1N1)pdm09 infection compared with oseltamivir: greater efficacy than oseltamivir
Adenovirus 5
  effect on adenovirus 5 transduction (GFP positive cells): not effective
[11]
  effect on HRVB14 replication (dsRNA J2 intensity): decreases the replication
EV1 RNA
  effect on infection after transfection of genomic RNA of EV1: totally prevented infection
EV1 particle
  direct virucidal effect on EV1 particle (genome release): does not have direct virucidal effects
EV1 [12]
  effect on uncoating of EV1 inside endosomes: does not affect the uncoating
